BigSolDB 2.1

Cc1coc2c1C(=O)C(=O)c1c-2ccc2c(C)cccc12
solubility (mole fraction)
Conditions | 278.15 K | 283.15 K | 288.15 K | 293.15 K | 298.15 K | 303.15 K | 308.15 K | 313.15 K | 318.15 K | 323.15 K
in DMF | 0.000919 | 0.00106 | 0.00125 | 0.00146 | 0.00169 | 0.00193 | 0.0022 | 0.00249 | 0.00288 | 0.00335
in acetone | 0.00103 | 0.0012 | 0.0014 | 0.00164 | 0.00194 | 0.00221 | 0.00253 | 0.00287 | 0.00324 | 0.0036
in ethanol | 6.4e-05 | 8.08e-05 | 9.82e-05 | 0.00012 | 0.000144 | 0.000167 | 0.000198 | 0.000233 | 0.000275 | 0.000332
in ethylene glycol | 8.39e-05 | 9.79e-05 | 0.000114 | 0.000132 | 0.000152 | 0.000175 | 0.000201 | 0.000232 | 0.000269 | 0.000317
in isopropanol | 0.00029 | 0.000334 | 0.000395 | 0.000456 | 0.000535 | 0.000626 | 0.000729 | 0.000849 | 0.00101 | 0.0012
in methanol | 5.56e-05 | 6.11e-05 | 6.79e-05 | 7.64e-05 | 8.61e-05 | 9.8e-05 | 0.000111 | 0.00013 | 0.000154 | 0.000182
in n-butanol | 0.000574 | 0.000636 | 0.000706 | 0.000793 | 0.000903 | 0.00103 | 0.00117 | 0.00135 | 0.00154 | 0.00178
in n-propanol | 0.000448 | 0.00051 | 0.000575 | 0.00067 | 0.000756 | 0.000866 | 0.000987 | 0.00113 | 0.0013 | 0.00151
in water | 5.28e-08 | 5.74e-08 | 6.23e-08 | 6.81e-08 | 7.47e-08 | 8.25e-08 | 9.26e-08 | 1.04e-07 | 1.17e-07 | 1.34e-07
